How the values were obtained:
[1] = Stability in human plasma test method; assay type: in vitro ADME; settings: 37° C.
Method: The stability of various of the compounds of the Examples in human plasma was tested using the following ‘stability in human plasma’ test method: 500 μl aliquots of human plasma in screw capped polypropylene tubes were preincubated at 37° C. in a waterbath for 5 minutes. The plasma samples were then spiked with 5 μl of test compound (nominally 5 mg/ml in DMSO). Aliquots (100 μl ) were removed immediately and after 5 minutes and mixed with an equal volume of acetonitrile. The samples were centrifuged and the supernatants were transferred to autosampler vials for HPLC and half-life analysis.
(§1) In the HPLC procedure, aliquots (20 μl) of all the supernatants were injected onto a Zorbax Rx C8 column (250×4.6mm; Hichrom). The column was maintained at 40° C. and eluted at a flow rate of 1.0 mL/min with a mobile phase of acetonitrile: 50 mM ammonium formate (65:35) adjusted to pH 4.2 with formic acid. Detection was by UV absorbance at 240 nm, and chromatographic peak areas for both parent and metabolite were measured
To determine the half-life, for each compound peak areas were plotted against time on a log-linear scale, and the half lives determined by extrapolation or interpolation of a straight line joining two points.

[2] = biological target: T1, Human Glucocorticoid Receptor (Homo sapiens, UniProt P04150); assay: Functional in vitro glucocorticoid activity assay: Hela cells stably transfected with sPAP reporter gene under MMTV LTR promoter; assay type: cell-based; settings: 72 hours incubation, values given as 'less than (about)', read-out: EC50 (sPAP transcription, glucocorticoid activity)
T1 construct: endogenous in cells; host or cells: HeLa cells stably transfected with an MMTV-LTR sPAP reporter
T1 sequence (P04150 1-777): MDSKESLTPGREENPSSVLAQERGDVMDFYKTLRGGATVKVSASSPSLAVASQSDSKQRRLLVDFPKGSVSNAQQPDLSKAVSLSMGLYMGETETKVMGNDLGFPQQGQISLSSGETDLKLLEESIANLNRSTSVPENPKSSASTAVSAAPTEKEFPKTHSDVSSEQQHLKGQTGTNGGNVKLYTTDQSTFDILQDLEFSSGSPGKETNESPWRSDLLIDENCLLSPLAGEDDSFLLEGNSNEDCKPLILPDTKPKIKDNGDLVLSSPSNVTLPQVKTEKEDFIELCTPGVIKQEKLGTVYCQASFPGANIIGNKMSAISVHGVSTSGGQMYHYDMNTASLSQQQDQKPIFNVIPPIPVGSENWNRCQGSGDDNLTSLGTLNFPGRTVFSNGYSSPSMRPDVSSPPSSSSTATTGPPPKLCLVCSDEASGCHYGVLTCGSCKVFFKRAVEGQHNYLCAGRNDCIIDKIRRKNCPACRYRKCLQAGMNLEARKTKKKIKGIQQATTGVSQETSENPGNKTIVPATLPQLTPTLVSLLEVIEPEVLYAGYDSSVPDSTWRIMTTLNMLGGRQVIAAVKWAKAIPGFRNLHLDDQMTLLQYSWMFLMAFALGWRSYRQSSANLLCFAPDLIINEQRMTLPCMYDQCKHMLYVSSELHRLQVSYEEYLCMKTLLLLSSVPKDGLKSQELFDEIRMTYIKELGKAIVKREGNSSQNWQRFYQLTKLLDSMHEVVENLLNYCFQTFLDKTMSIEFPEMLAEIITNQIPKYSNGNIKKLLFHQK
Description: The functional assay used was a modification of the method described by T. S Berger et al, of J. of Steroid Biochem. Molec. Biol. 1992, 41 (3-8), 733-738, “Interaction of Glucocorticoid analogues with the Human Glucocorticoid Receptor”. Thus, Hela cells were stably transfected with a detectable reporter gene (secreted placental alkaline phosphatase, sPAP) under the control of a glucocorticoid response promoter (the LTR of the mouse mammary tumour virus, MMTV). Various concentrations of standard (dexamethasone) or compounds of the invention were incubated with transfected Hela cells for 72 hours. At the end of the incubation, substrate ([…]) for sPAP was added and the product measured by a spectrophotometric method. Increased absorbance reflected increased sPAP transcription and concentration-response lines were constructed such that EC50-values could be estimated.

human serum paraoxonase = human serum paraoxonase (Homo sapiens, UniProt P27169); assay: Hydrolysis by human serum paraoxonase (enzymatic hydrolysis test method); assay type: in vitro ADME; settings: 5% bovine serum albumin, 20 mM CaCl2, 37° C.
human serum paraoxonase, sequence (P27169 whole entry): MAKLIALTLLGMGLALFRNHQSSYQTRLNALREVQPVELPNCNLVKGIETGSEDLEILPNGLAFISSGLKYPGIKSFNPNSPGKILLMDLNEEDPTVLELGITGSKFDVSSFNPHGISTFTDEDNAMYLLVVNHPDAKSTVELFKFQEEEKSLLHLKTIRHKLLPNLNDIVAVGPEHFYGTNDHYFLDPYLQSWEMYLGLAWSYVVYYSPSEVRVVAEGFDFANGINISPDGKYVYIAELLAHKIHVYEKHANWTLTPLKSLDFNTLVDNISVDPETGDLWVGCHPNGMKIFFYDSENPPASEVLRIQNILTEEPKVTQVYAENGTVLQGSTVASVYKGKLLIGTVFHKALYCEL
Method: The compounds herein have relatively short half-lives in blood in vitro. A test method for determining the half-life of the compounds under defined enzymatic hydrolysis conditions in vitro is now described. The test method is believed to provide a suitable indicator as to effects in vivo. In the test method, the hydrolysis of test compounds by a lactonase enzyme is monitored using RP HPLC with UV detection.
The ‘enzymatic hydrolysis test method’ is as follows: Incubations are carried out in 1 ml volumes in an aqueous medium containing 5% bovine serum albumin in the presence of 20 mM CaCl2. The solutions are preincubated at 37° C. for 5 minutes before the addition of the test compound (5 μl of a 5 mg/ml solution in DMSO) and then lactonase enzyme (10 μl to the 1 ml incubations). Control incubations containing no enzyme are also included. The enzymatic hydrolysis is monitored by removal of aliquots and quenching the reaction by the addition of an equal volume of acetonitrile. The samples are vortex mixed, then centrifuged and the supernatants are transferred to autosampler vials for HPLC analysis.
as §1, with “In a suitable” for “In the”, “of” for “of all”, “supernatants are” for “supernatants were”, “column is” for “column was”, “Detection is” for “Detection was”, “metabolite are measured.” for “metabolite were measured”
In a preferred aspect, the half-life of each compound may be determined by a method in which peak areas are plotted against time on a log-linear scale, and the half lives determined by extrapolation or interpolation of a straight line joining two points.
The above described ‘enzymatic hydrolysis test method’ employs lactonase enzyme. Suitable forms of lactonase enzyme include human serum paraoxonase or a recombinant form thereof, or purified lactonase, obtained from human plasma as described hereinafter. Purification of human serum paraoxonase is described by C E Furlong et al, Chem.Biol.Interactions, Vol 87, p35-48, (1993) and recombinant human serum paraoxonase is described in International Patent application No. WO 96/01322
The susceptibility to hydrolysis by human serum paraoxonase of certain of the compounds of the Examples was assessed using the test protocol of the ‘enzymatic hydrolysis test method’ described herein.

[3] = Stability in human lung S9; assay type: in vitro ADME; settings: human lung S9 diluted 1:1 with phosphate buffer pH 7.4, NADPH, 37° C.
Method: The stability of the compound of Examples 4 and 6 in a model human lung environment was assessed using the following test protocol: Incubations were carried out, at 37° C., in 500 μL volumes of human lung S9 diluted 1:1 with 10 mM phosphate buffer pH 7.4 to which was added 50 μl of 30 mg/ml (Aq) NADPH. The reactions were started by the addition of 5 μl of test compound (nominally 5 mg/ml solution in DMSO). Aliquots (100 μl) were removed immediately and after 1 hour and mixed with an equal volume of acetonitrile to stop the reaction. Samples were centrifuged and the supernatants were transferred to autosampler vials for HPLC analysis and half-life analysis using methods identical to those described in the ‘stability in human plasma’ test protocol described above. Control incubations containing no lung S9 were also included.

CC12CCC(=O)C=C1C(F)CC1C3CC4OC(CSC5CCOC5=O)OC4(C(=O)CO)C3(C)CC(O)C12F (stereo not drawn) [Example 4, 6α,9α-Difluoro-11β,21-dihydroxy-16α, 17α-[2-(2-oxo-tetrahydro-furan-3-yl)sulfanyl]ethylidenedioxy-pregn-4-ene-3,20-dione]
half-life at 49.5 µg/mL [1]: < 10 min | EC50 [2]: < 250 nM | Hydrolysis by human serum paraoxonase (human serum paraoxonase): hydrolysed | half-life at 45 µg/mL [3]: > 60 min

Reference: US20020019378A1, “COMPOUNDS” (priority 1997, published 2002)
